Active and inactive are the calls of the source. The rule behind the calls is not given here.
Experiments:
[1] = molecular target: Neuronal acetylcholine receptor; alpha4/beta4 (Homo sapiens) (UniProt P30926+P43681); experiment: Intrinsic activity at human alpha4beta4 nAChR receptor expressed in human SH-SY5Y cells assessed as 86Rb+ efflux at 5 to 100 uM by liquid scintillation counting; format: cell-based
Mus musculus [2] = species on record: Mus musculus; experiment: Antinociceptive activity in ICR mouse D'Amour and Smith model of pain assessed as inhibition of nicotine-induced response by tail-flick test; format: functional
Mus musculus [3] = species on record: Mus musculus; experiment: Antinociceptive activity in ICR mouse assessed as inhibition of nicotine-induced response by hotplate test; format: functional
Mus musculus [4] = species on record: Mus musculus; experiment: Effect on behavioral activity in ICR mouse assessed as inhibition of nicotine-induced locomotory response by locomotor assay; format: functional
[5] = molecular target: Neuronal acetylcholine receptor; alpha3/beta4 (Homo sapiens) (UniProt P30926+P32297); experiment: Intrinsic activity at alpha3beta4 nAChR receptor in human SH-SY5Y cells assessed as 86Rb+ efflux at 5 to 100 uM by liquid scintillation counting; format: cell-based
[6] = molecular target: Neuronal acetylcholine receptor; alpha4/beta2 (Homo sapiens) (UniProt P17787+P43681); experiment: Intrinsic activity at human alpha4beta2 nAChR receptor expressed in human SH-SY5Y cells assessed as 86Rb+ efflux at 5 to 100 uM by liquid scintillation counting; format: cell-based
[7] = molecular target: Sodium-dependent noradrenaline transporter (Homo sapiens, UniProt P23975); experiment: Inhibition of [3H]norepinephrine uptake at human NET expressed in HEK293 cells; format: cell-based
[8] = molecular target: Sodium-dependent dopamine transporter (Homo sapiens, UniProt Q01959); experiment: Inhibition of [3H]dopamine uptake at human DAT expressed in HEK293 cells; format: cell-based
[9] = molecular target: Acetylcholine receptor; alpha1/beta1/delta/gamma (Homo sapiens) (UniProt P02708+P07510+P11230+Q07001); experiment: Intrinsic activity at alpha-1-beta-1-gamma-delta nAChR receptor expressed in human TE671/RD cells assessed as 86Rb+ efflux at 5 to 100 uM by liquid scintillation counting; format: cell-based
[10] = molecular target: Sodium-dependent serotonin transporter (Homo sapiens, UniProt P31645); experiment: Inhibition of [3H]serotonin uptake at human SERT expressed in HEK293 cells; format: cell-based
Mus musculus [11] = species on record: Mus musculus; experiment: Effect on body temperature in ICR mouse assessed as inhibition of nicotine-induced hypothermic response; format: functional

Sodium-dependent serotonin transporter, sequence (P31645 whole entry): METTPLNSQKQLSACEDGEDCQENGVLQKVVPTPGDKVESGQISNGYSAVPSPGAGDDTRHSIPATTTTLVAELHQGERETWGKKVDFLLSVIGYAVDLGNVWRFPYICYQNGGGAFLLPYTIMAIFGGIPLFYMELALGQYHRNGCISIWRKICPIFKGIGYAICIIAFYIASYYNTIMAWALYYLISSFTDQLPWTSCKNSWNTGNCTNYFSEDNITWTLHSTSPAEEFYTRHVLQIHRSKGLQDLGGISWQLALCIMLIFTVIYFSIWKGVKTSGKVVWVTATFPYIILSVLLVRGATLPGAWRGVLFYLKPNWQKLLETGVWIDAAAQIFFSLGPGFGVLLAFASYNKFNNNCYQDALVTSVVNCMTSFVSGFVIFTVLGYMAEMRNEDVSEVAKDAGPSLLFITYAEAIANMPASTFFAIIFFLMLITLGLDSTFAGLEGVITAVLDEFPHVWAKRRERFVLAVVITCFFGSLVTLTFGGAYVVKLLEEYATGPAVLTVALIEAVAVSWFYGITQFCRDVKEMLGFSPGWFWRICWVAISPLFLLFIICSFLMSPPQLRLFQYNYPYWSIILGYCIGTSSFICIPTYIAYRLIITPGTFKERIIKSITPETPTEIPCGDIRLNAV
Sodium-dependent noradrenaline transporter, sequence (P23975 whole entry): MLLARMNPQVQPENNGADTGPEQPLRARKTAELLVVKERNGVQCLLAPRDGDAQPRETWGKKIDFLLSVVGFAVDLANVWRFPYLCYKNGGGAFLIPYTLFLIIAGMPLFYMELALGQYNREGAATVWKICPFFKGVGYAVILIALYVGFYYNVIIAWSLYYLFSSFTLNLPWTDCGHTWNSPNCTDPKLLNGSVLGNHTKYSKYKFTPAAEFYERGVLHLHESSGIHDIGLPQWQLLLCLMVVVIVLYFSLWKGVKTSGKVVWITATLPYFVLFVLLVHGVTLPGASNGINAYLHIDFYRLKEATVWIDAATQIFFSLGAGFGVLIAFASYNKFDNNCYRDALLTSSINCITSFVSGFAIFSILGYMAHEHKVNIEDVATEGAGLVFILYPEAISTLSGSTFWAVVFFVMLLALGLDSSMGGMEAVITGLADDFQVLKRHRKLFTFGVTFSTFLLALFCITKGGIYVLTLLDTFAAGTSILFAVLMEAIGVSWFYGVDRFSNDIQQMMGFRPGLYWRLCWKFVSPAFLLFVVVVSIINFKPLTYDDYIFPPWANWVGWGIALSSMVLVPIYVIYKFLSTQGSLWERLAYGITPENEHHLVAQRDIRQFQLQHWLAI
Sodium-dependent dopamine transporter, sequence (Q01959 whole entry): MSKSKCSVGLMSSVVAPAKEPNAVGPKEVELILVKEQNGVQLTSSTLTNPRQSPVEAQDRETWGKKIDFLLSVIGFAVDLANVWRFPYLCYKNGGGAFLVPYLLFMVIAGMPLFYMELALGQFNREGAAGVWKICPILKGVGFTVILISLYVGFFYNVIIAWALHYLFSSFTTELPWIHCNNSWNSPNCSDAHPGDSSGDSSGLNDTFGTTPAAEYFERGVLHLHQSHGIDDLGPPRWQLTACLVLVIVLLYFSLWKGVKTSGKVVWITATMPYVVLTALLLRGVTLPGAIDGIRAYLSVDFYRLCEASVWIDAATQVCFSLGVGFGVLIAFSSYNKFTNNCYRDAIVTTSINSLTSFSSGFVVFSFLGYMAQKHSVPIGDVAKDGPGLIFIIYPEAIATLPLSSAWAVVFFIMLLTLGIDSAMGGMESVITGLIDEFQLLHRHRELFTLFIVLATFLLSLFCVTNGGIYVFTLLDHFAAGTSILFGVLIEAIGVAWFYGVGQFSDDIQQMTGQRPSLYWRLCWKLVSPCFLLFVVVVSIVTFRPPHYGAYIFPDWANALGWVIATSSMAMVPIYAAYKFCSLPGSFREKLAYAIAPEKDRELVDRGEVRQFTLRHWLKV

| SMILES | Activity [1] | AD50 (Mus musculus [2]) [mg/kg] | AD50 (Mus musculus [3]) | AD50 (Mus musculus [4]) | Activity [5] | Activity [6] | IC50 [7] [nM] | IC50 [8] [nM] | Activity [9] | IC50 [10] [nM] | AD50 (Mus musculus [11]) |
| --- | --- | --- | --- | --- | --- | --- | --- | --- | --- | --- | --- |
| CC(NC(C)(C)C)C(=O)c1ccc(Cl)c(Cl)c1 (centres undefined) | inactive | 0.28 | inactive | inactive | inactive | inactive | 1670 | 463 | inactive | 8800 | inactive |
| CC(NC(C)(C)C)C(=O)c1ccc(Cl)cc1 (centres undefined) | inactive | 0.43 | inactive | 31 mg/kg | inactive | inactive | 2070 | 1090 | inactive | 9800 | 32 mg/kg |
| CC(NC(C)(C)C)C(=O)c1ccc(Br)cc1 (centres undefined) | inactive | 0.15 | 23.5 mg/kg | inactive | inactive | inactive | 2540 | 689 | inactive | 4510 | 29 mg/kg |
| CCC(NC(C)(C)C)C(=O)c1ccc(Cl)c(Cl)c1 (centres undefined) | inactive | 0.05 | inactive | inactive | inactive | inactive | 389 | 118 | inactive | 1090 | inactive |

— ChEMBL document CHEMBL1157604 (J Med Chem, 2010)
